Measurements taken from ChEMBL document CHEMBL1128516, “A check on rational drug design: crystal structure of a complex of human immunodeficiency virus type 1 protease with a novel gamma-turn mimetic inhibitor” (J Med Chem, 1995).

Target: Human immunodeficiency virus type 1 protease (Human immunodeficiency virus 1, UniProt Q72874)
Assay: Competitive inhibitory activity against HIV-1 protease

**Q.** `COC(=O)C(NC(=O)C(NC(=O)[C@H](C)N1CCC(C(C)N(C)C(C)C(=O)O)=CC(Cc2ccccc2)C1=O)C(C)C)C(C)C` (stereo partly specified) was tested. Which Ki did it give?
**A.** 147 µM
